Assay results taken from PubChem BioAssay (NCI).
Values joined by “and” are separate entries in the source; they are usually repeats but may differ in a detail not shown here. Identical values can stand only once.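 Interpolation was linear, between the two tested concentrations surrounding the appropriate level; five concentrations were tested over 48 hours in 96-well plates. Abbreviation: GI50, concentration required for 50% inhibition of growth. TGI marks complete inhibition of growth.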

Columns and labels:
Assay in all cases: inhibition of tumour cell growth, NCI panel, 48 h
SNB-19 CNS = tested on: SNB-19 CNS
IGROV1 ovarian = tested on: IGROV1 ovarian
NCI-H522 lung = tested on: NCI-H522 lung
RXF 393 renal = tested on: RXF 393 renal
SK-MEL-5 melanoma = tested on: SK-MEL-5 melanoma
K-562 leukemia = tested on: K-562 leukemia
EKVX NSCLC = tested on: EKVX NSCLC
MALME-3M melanoma = tested on: MALME-3M melanoma
LOX IMVI melanoma = tested on: LOX IMVI melanoma
NCI-H226 lung = tested on: NCI-H226 lung

Row | Compound | TGI (SNB-19 CNS) | TGI (IGROV1 ovarian) | TGI (NCI-H522 lung) | TGI (RXF 393 renal) [µM] | TGI (SK-MEL-5 melanoma) | TGI (K-562 leukemia) | TGI (EKVX NSCLC) | TGI (MALME-3M melanoma) | TGI (LOX IMVI melanoma) | GI50 (SNB-19 CNS) [µM] | GI50 (IGROV1 ovarian) | GI50 (NCI-H522 lung) [µM] | GI50 (NCI-H226 lung) [µM] | TGI (NCI-H226 lung) | GI50 (SK-MEL-5 melanoma) [µM] | GI50 (K-562 leukemia) [µM] | GI50 (EKVX NSCLC) [µM] | GI50 (LOX IMVI melanoma) [µM] | GI50 (MALME-3M melanoma) [µM] | GI50 (RXF 393 renal) [µM]
1 | CCC1OCCN1C(C)C (configuration not stated) | > 100 µM | > 100 µM | > 100 µM | > 100 | > 100 µM | > 100 µM | 86.8 µM | > 100 µM | > 100 µM |  |  |  |  |  |  |  |  |  |  | 
2 | COc1ccc(C2=CC(c3cc(OC)c(OC)c(OC)c3)n3ncnc3N2)cc1 (configuration not stated) | > 100 µM | 31.1 µM | 0.654 µM |  | 0.374 µM | > 100 µM | > 100 µM |  | > 100 µM | 0.0672 | 0.0912 µM | 0.0324 | 7.99 | 71 µM | 0.0427 | 0.0359 | 0.0788 | 0.0898 |  | 
3 | CCOC(=O)CCC1(C(=O)OC)CCCC1=O (configuration not stated) | > 100 µM | > 100 µM | > 100 µM | > 100 | > 100 µM | > 100 µM | > 100 µM | > 100 µM | > 100 µM |  |  |  |  |  |  |  |  |  |  | 
4 | CCCCCCCCCCCCCCCC[N+]1(CC)CCCC1 |  | 1.87 µM |  |  | 1.52 µM |  |  | 1.98 µM | 0.454 µM |  | 0.432 µM |  | 1.18 | 5.95 µM | 0.4 |  |  | 0.162 | 0.582 | 
5 | Cc1ccc(NC(=O)CCC(=O)C2CC(=O)CC/C2=N\NC(=O)c2cc3ccccc3cc2O)cc1C (configuration not stated) | > 100 µM | 66.9 µM | 39.5 µM |  | 29.6 µM | > 100 µM | 99.6 µM | 90.2 µM |  |  |  |  |  | 97.2 µM |  |  |  |  |  | 
6 | O=C1c2c(O)cccc2C(C(=O)CCCCC(=O)C2c3cccc(O)c3C(=O)c3c(O)cccc32)c2cccc(O)c21 | 1.35 µM and 1.89 µM | 1.74 µM and 3.7 µM | 1.07 µM and 2.92 µM |  | 0.921 µM and 2.04 µM | 7.66 µM and 2.49 µM | 1.64 µM and 3.68 µM | 4.38 µM and 2.92 µM | 2.74 µM and 5.08 µM | 0.529 | 0.664 µM and 1.37 µM | 1.25 | 1.1 | 2.27 µM and 2.89 µM | 1.09 | 1.21 | 1.55 | 1.56 |  | 
7 | COc1cc(C(c2cc3c(cc2O)OCO3)N2CCCC2)cc(OC)c1OC (configuration not stated) | 38.2 µM | 27.8 µM | 11.5 µM |  | 41.5 µM | 21.1 µM | 30 µM | 20.7 µM | 31.9 µM |  |  |  |  | 33.8 µM |  |  |  |  |  | 
8 | O=C1C=C(Nc2cccc(Br)c2)c2ccccc2C1=O | > 100 µM | 37.5 µM | 60.1 µM | 22.4 | 10.5 µM | 18.3 µM |  |  | 21.5 µM | 6.56 | 10.5 µM | 4.79 | 21.7 | 99.4 µM | 1.2 | 1.52 |  | 4.35 |  | 3.27
9 | CC(=O)[CH-]C(=O)c1ccccc1.CC(=O)[CH-]C(=O)c1ccccc1.[O]=[U+2]=[O] |  | > 100 µM | > 100 µM | > 100 | > 100 µM | > 100 µM | > 100 µM | 54.6 µM | > 100 µM |  | 55 µM | 65.2 |  |  | 26.8 | 37.3 | 32.8 | 25.4 | 21.8 | 34
10 | Cc1ccc([P+](Cc2ccc([N+](=O)[O-])cc2)(c2ccc(C)cc2)c2ccc(C)cc2)cc1 | 13.6 µM | 14.8 µM | 4.26 µM | 20.2 | 2.52 µM | 12.3 µM |  |  | 12.5 µM | 3.25 | 2.53 µM | 1.56 | 5.31 | 21.4 µM | 1.22 | 1.28 |  | 2.32 |  | 5.55
11 | C/C(=N\NS(=O)(=O)c1ccc(C)cc1)c1ccc[n+]([O-])n1 | > 100 µM | > 100 µM | > 100 µM |  | > 100 µM | > 100 µM | > 100 µM |  |  |  |  |  |  |  |  |  |  |  |  | 
12 | O=C(/C=C/N1CCN(c2cccc(C(F)(F)F)c2)CC1)c1ccc(Cl)cc1Cl | > 100 µM | 58.2 µM | > 100 µM | 73.4 | 36.9 µM | > 100 µM | 65.4 µM | 36.2 µM | 47.1 µM | 47.7 | 30 µM | 36.1 |  |  | 19.2 | 35.8 | 27.9 | 22.7 | 17.4 | 30.9
13 | COc1ccc(C[C@H]2C[C@@H](O)[C@@H](C)C/C=C/Cc3cccc(O)c3C(=O)O2)cn1 | > 100 µM | 34.4 µM | 49.1 µM | > 100 | 35.1 µM | 28.6 µM | > 100 µM |  | 37.7 µM | 38.9 | 13 µM | 14.2 | 27.3 | > 100 µM | 17.6 | 12.2 | 32.1 | 19.1 |  | 30.5
14 | Cc1nnc([S-])s1.[Au+].c1ccc([PH+](c2ccccc2)c2ccccc2)cc1 | 2.98 µM | 2.97 µM | 3.17 µM | 2.53 | 2.97 µM |  |  | 3 µM | 2.82 µM | 1.6 | 1.53 µM | 0.692 |  |  | 1.51 |  |  | 1.44 | 1.59 | 1.26
15 | CCOC(=O)/C=C1\Nc2ccccc2C(c2ccccc2)=NC1OC(C)=O (configuration not stated) |  | > 100 µM | > 100 µM |  | > 100 µM | > 100 µM | > 100 µM | > 100 µM | > 100 µM |  |  |  |  |  |  |  |  |  |  | 
16 | O=C(Oc1c(I)ccccc1=O)c1ccc([N+](=O)[O-])cc1 | 46.5 µM | 29.2 µM | 36.7 µM | 21.7 | 13.6 µM | 61.9 µM | 28.3 µM | 30.7 µM | 83.2 µM |  |  |  |  |  |  |  |  |  |  | 
17 | CC(CC(=O)O)(CC(=O)O)C(=O)O | > 100 µM | > 100 µM | > 100 µM | > 100 | > 100 µM | > 100 µM | > 100 µM | > 100 µM | > 100 µM |  |  |  |  |  |  |  |  |  |  | 
18 | COc1cc2ccn3c4cc(OC)c(OC)cc4cc3c2cc1OC | > 100 µM |  | > 100 µM |  |  | > 100 µM | > 100 µM | > 100 µM |  |  |  |  |  | > 100 µM |  |  |  |  |  | 
19 | COc1c(O)c(OC)c(C(=O)/C=C/c2ccccc2)c(O)c1OC | > 100 µM | > 100 µM | 31.9 µM |  | 46 µM | > 100 µM | > 100 µM | > 100 µM | 87.2 µM |  |  |  |  | > 100 µM |  |  |  |  |  | 
20 | Cn1c(=O)c2c3oc(=O)cc(O)c3c(=O)n3c4ccccc4n(c1=O)c23 | > 100 µM | > 100 µM |  | > 100 | 81 µM | 65.8 µM | > 100 µM | > 100 µM | 82.4 µM |  |  |  |  |  |  |  |  |  |  | 
21 | CC(=O)NC1C(OCc2ccccc2)OC(COC(=O)CCCCCCCCCCNC(=O)c2cccc3c(=O)c4ccccc4[nH]c23)C(O)C1OC(C)C(=O)NC(C)C(=O)NC(CCC(N)=O)C(N)=O (configuration not stated) | > 100 µM | > 100 µM | > 100 µM |  | > 100 µM | > 100 µM | > 100 µM |  | > 100 µM |  |  |  |  | > 100 µM |  |  |  |  |  | 
22 | O=c1oc(-c2ccc(O)c(O)c2)cc2cc(O)cc(O)c12 | > 100 µM | 43.2 µM | > 100 µM | > 100 | 42.2 µM | > 100 µM | 91.3 µM | > 100 µM | > 100 µM | 56.3 | 2.19 µM | 27.3 |  |  | 18 | 41.6 | 28.4 | 60.8 | 57.5 | 35.9
23 | COC(=O)/C(=N\NC(=O)c1ccccc1O)C(C#N)c1ccc(Cl)cc1 (configuration not stated) |  | > 100 µM | 72.3 µM | 79.8 | > 100 µM | > 100 µM | > 100 µM | > 100 µM |  |  |  |  |  |  |  |  |  |  |  | 
24 | CC[C@]12C=CCN3CC[C@]4(C(=C(C(=O)OC)C1)Nc1cc(O)ccc14)[C@@H]32 | 44.2 µM | 57.3 µM | 55.2 µM | 28.9 | 28.3 µM | > 100 µM | > 100 µM | 26.3 µM | 26.7 µM | 18 | 19.1 µM | 15.1 |  |  | 14.8 | 7.59 | 24.6 | 13.6 | 11.8 | 13.3
25 | c1ccc(SCCCC(Sc2ccccc2)Sc2ccccc2)cc1 | > 100 µM | > 100 µM |  | > 100 | > 100 µM | > 100 µM | > 100 µM |  | > 100 µM |  |  |  |  |  |  |  |  |  |  | 
26 | CC(CS(=O)(=O)Cc1ccccc1)C(N)=O (configuration not stated) | > 100 µM | > 100 µM | > 100 µM |  | > 100 µM | > 100 µM | > 100 µM | > 100 µM | > 100 µM |  |  |  |  | > 100 µM |  |  |  |  |  | 
27 | Cc1c(C(C)C)cc(OCCO)cc1C(C)C | > 100 µM | > 100 µM | 81.5 µM | 36.2 | 38.1 µM | > 100 µM | 70.9 µM |  | 63.4 µM |  |  |  |  | > 100 µM |  |  |  |  |  | 
28 | O=c1c2ccccc2nc(-c2ccccc2)n1NCC1(O)OCC(O)C(O)C1O (configuration not stated) | > 100 µM | > 100 µM | > 100 µM |  | > 100 µM | > 100 µM | > 100 µM | > 100 µM |  |  |  |  |  | > 100 µM |  |  |  |  |  | 
29 | Cc1nnc2n1N=C(CC(=O)c1ccc(O)cc1O)CN2N | > 100 µM | > 100 µM |  | > 100 | > 100 µM | > 100 µM | > 100 µM | > 100 µM | > 100 µM |  |  |  |  |  |  |  |  |  |  | 
